Laboratory results: patent US4328242A, “α-(3,4,5-Trimethoxyhenzoyl)thiopropionyl-glycine” (Ausoria Farmaceutici S.r.l., priority 1980, dated 1982)

What was measured:
[1] = Isothermic (accelerated) stability according to the method of Garret, TLC; format: physicochemical
Procedure: The tests of accelerated stability have been carried out with the substance in powder form, that is in glass vials, hermetically closed with a plastic screw cap and also with the substance dissolved in water, that is 500 mg in 10 cc in a transparent glass container of 20 cc capacity closed with a plastic screw cap.
The production of impurities, if any, due to degradation of the substance, has been determined by means of TLC.

New Zealand rabbits = assay: Toxicity in the fetus, rabbits; format: in vivo; details: female rabbits, daily oral and subcutaneous, 250 and 500 mg/kg, twenty eight days of gestation
Excerpt: Toxicity in the fetus of TBPG has been studied in albino Sprague-Dawley rats and in New Zealand rabbits. In the case of rats both male and female, the treatment has been initiated four weeks prior to coupling and then has been continued only in the females during the twenty days of gestation.
In the case of female rabbits, the treatment has been carried out during the twenty eight days of gestation.

[2] = format: in vivo; details: rats, oral route, equimolar doses
[3] = biological target: T1, glutathione peroxidase (GSHP) (Homo sapiens, UniProt P07203); assay: Action on the glutathione peroxidase (GSHP); format: biochemical; details: system glutathione/NADPH/GSH-reductase/cumene hydroperoxide; read-out: apparent Ki
T1 sequence (P07203 1-203): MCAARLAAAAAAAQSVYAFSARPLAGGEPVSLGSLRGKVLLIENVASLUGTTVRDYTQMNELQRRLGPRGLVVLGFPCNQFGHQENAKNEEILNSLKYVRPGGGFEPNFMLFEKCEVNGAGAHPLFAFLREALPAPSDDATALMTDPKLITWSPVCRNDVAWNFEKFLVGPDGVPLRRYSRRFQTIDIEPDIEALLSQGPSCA
Excerpt: The experiment has been carried out for the purpose of determining the inhibitory activity if any of TBPG with respect to GSHP, an enzyme well known connected with phlogistic processes.
The results have been obtained using the system glutathione/NADPH/GSH-reductase/cumene hydroperoxide and have shown that TBPG is capable of exerting an inhibitory activity on GSHP with an apparent Ki 5.4.10^-3 molar.

rats [4] = assay: Action on the period of sleep induced by barbiturates; format: in vivo; details: rats intoxicated with CCl4; 200 and 400 mg/kg orally, two days; clear correlation between dosage and effect
Procedure: The activity of TBPG administered for two days in the dose of 200 and 400 mg/kg orally, has been determined on the basis of the reduction of the period of sleep induced by Nembutal on rats intoxicated with CCl4.

[5] = Stability in reducing medium (SO2); format: physicochemical; details: 25 mg/ml, sodium bisulfite calculated as SO2, refluxed three hours
Procedure: In the presence of SO2 --solutions containing 25 mg/ml of TBPG and MPG respectively in the presence of sodium bisulfite calculated as SO2 are warmed and refluxed for a period of three hours.

rats [6] = assay: Protective activity of the liver in the intoxication caused by CCl4 (BSF elimination); format: in vivo; details: rats intoxicated with CCl4; 200 and 400 mg/kg orally, 14 days; BSF 10 mg/kg i.v. on day 15; proportionate to the dosage
Procedure: The animals, that is rats, were intoxicated with CCl4 for a period of seven days. They were treated during the same days and for a subsequent period of seven days with TBPG in the dose of 200 and 400 mg/kg orally and with α-mercaptopropionylglycine in the dose of 90 and 180 mg/kg orally. On the fifteenth day, the rats have been treated with BSF in the amount of 10 mg/kg intravenously.

Stability to moisture = format: physicochemical; details: open vials, 90% relative humidity, a month
Procedure: Samples of TBPG and MPG have been maintained in open vials at room temperature under conditions of 90% relative humidity and at 50° C. always with 90% relative humidity. After a month of exposure, the following observations have been made.

## COc1cc(C(=O)SC(C)C(=O)NCC(=O)O)cc(OC)c1OC (stereo not drawn) [TBPG, α-(3,4,5-trimethoxybenzoyl)thiopropionylglycine]
[1]; Powder, 60°, 320 hours
  Chromatographic Impurities: Absent
[1]; Powder, 70°, 120 hours
  Chromatographic Impurities: Absent
[1]; Powder, 70°, 240 hours
  Chromatographic Impurities: Absent
[1]; Powder, 80°, 45 hours
  Chromatographic Impurities: Absent
[1]; Powder, 80°, 180 hours
  Chromatographic Impurities: Absent
[1]; Solution (500 mg in 10 cc water), 60°, 0 hours
  Chromatographic Impurities: Absent
[1]; Solution (500 mg in 10 cc water), 60°, 320 hours
  Chromatographic Impurities: Absent
[1]; Solution (500 mg in 10 cc water), 60°, 640 hours, read-out: Chromatographic Impurities
  degraded at 640 h: 0.5%
[1]; Solution (500 mg in 10 cc water), 60°, 960 hours, read-out: Chromatographic Impurities
  degraded at 960 h: 0.7%
[1]; Solution (500 mg in 10 cc water), 60°, 1280 hours, read-out: Chromatographic Impurities
  degraded at 1280 h: 1.2%
[1]; Solution (500 mg in 10 cc water), 60°, 1600 hours, read-out: Chromatographic Impurities
  degraded at 1600 h: 1.3%
[1]; Solution (500 mg in 10 cc water), 70°, 180 hours
  Chromatographic Impurities: Absent
[1]; Solution (500 mg in 10 cc water), 70°, 240 hours, read-out: Chromatographic Impurities
  degraded at 240 h: 1.1%
[1]; Solution (500 mg in 10 cc water), 70°, 480 hours, read-out: Chromatographic Impurities
  degraded at 480 h: 1.2%
[1]; Solution (500 mg in 10 cc water), 80°, 45 hours
  Chromatographic Impurities: Absent
[1]; Solution (500 mg in 10 cc water), 80°, 90 hours, read-out: Chromatographic Impurities
  degraded at 90 h: 1.2%
[1]; Solution (500 mg in 10 cc water), 80°, 120 hours, read-out: Chromatographic Impurities
  degraded at 120 h: 1.3%
New Zealand rabbits
  toxicity in the fetus (deformation, number and weight of living offspring): has not induced any deformation in the fetus and has not affected the number and the weight of the living offspring
[2]
  concentration in the kidney: high concentrations in the kidney
  distribution in the organs: sufficiently homogenous
[2]; statistically significant
  content in the lungs with respect to α-mercaptopropionylglycine: substantially higher content in the lungs
[3]
  Ki: 5.4 mM
Rats [4]
  reduction of the period of sleep induced by Nembutal: very substantial
[5]
  stability in reducing medium: undergoes no physico-chemical change or organoleptic change
Rats [6]
  elimination of BSF (hematic concentrations): favors the elimination of BSF in a statistically significant manner
Stability to moisture; 50° C.
  stability to moisture: slight yellow color, but no degradation products
Stability to moisture; room temperature (t.a.)
  stability to moisture: no decomposition
